Experimental data published in US9040545B2, “Heterocyclyl pyrazolopyrimidine analogues as selective JAK inhibitors” (Cellzome Limited, priority 2010, dated 2015).

Biological target: T1, JAK3 (Homo sapiens, UniProt P52333)
T1 construct: endogenous in cells; host or cells: mixed Molt4/Ramos lysate (1:2)
T1 sequence (P52333 1-1124): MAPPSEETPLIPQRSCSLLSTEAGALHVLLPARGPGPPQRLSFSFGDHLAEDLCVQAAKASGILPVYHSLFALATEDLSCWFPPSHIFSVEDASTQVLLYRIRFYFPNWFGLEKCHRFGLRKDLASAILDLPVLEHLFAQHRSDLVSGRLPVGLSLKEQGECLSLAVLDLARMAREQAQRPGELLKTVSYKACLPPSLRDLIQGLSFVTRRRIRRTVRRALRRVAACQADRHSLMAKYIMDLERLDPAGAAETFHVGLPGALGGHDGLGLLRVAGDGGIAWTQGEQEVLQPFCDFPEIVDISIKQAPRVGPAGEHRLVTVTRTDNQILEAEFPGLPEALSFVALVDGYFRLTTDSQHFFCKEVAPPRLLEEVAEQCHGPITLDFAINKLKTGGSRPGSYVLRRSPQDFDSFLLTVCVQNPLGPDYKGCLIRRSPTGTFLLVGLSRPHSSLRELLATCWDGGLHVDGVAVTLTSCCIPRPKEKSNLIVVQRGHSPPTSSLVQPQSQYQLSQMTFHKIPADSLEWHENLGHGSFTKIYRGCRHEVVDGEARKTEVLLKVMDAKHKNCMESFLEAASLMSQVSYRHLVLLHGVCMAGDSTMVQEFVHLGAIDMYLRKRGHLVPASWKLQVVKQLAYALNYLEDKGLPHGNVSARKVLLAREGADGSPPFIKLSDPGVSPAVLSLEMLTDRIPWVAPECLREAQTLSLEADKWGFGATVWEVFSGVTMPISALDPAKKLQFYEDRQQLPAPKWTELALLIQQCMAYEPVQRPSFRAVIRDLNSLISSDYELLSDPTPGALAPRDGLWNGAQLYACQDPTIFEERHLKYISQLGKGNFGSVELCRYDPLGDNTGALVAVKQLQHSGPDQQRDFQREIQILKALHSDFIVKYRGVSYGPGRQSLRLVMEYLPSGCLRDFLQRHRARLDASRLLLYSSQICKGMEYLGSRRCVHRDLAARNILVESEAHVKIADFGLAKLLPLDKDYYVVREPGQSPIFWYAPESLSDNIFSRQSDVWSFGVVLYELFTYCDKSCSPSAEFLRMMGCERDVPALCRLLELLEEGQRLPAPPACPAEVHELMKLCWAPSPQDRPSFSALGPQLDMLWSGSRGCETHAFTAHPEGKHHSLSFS
Assay: Kinobeads assay, JAK3
Format: binding
Conditions: mixed Molt4/Ramos lysate, read-out: Inhibition values (IC50) JAK3
Method: The compounds of the present invention as described in the previous examples were tested in a Kinobeads™ assay as described for ZAP-70 (WO-A 2007/137867). Briefly, test compounds (at various concentrations) and the affinity matrix with the immobilized aminopyrido-pyrimidine ligand 24 were added to cell lysate aliquots and allowed to bind to the proteins in the lysate sample. After the incubation time the beads with captured proteins were separated from the lysate. Bound proteins were then eluted and the presence of JAK2 and JAK3 was detected and quantified using specific antibodies in a dot blot procedure and the Odyssey infrared detection system. Dose response curves for individual kinases were generated and IC50 values calculated. Kinobeads™ assays for ZAP-70 (WO-A 2007/137867) and for kinase selectivity profiling (WO-A 2006/134056) have been previously described.
The affinity matrix was washed two times with 15 mL of 1×DP buffer containing 0.2% NP40 (IGEPAL® CA-630, Sigma, #I3021) and then resuspended in 1×DP buffer containing 0.2% NP40 (3% beads slurry).
5×DP buffer 250 mM Tris-HCl pH 7.4, 25% Glycerol, 7.5 mM MgCl2, 750 mM NaCl, 5 mM Na3VO4; filter the 5×DP buffer through a 0.22 μm filter and store in aliquots at −80° C. The 5×DP buffer is diluted with H2O to 1×DP buffer containing 1 mM DTT and 25 mM NaF.
Stock solutions of test compounds were prepared in DMSO. In a 96 well plate 30 μL solution of diluted test compounds at 5 mM in DMSO were prepared. Starting with this solution a 1:3 dilution series (9 steps) was prepared. For control experiments (no test compound) a buffer containing 2% DMSO was used.
Molt4 cells (ATCC catalogue number CRL-1582) and Ramos cells (ATCC catalogue number CRL-1596) were grown in 1 L Spinner flasks (Integra Biosciences, #182101) in suspension in RPMI 1640 medium (Invitrogen, #21875-034) supplemented with 10% Fetal Bovine Serum (Invitrogen) at a density between 0.15×106 and 1.2×10^6 cells/mL. Cells were harvested by centrifugation, washed once with 1×PBS buffer (Invitrogen, #14190-094) and cell pellets were frozen in liquid nitrogen and subsequently stored at −80° C. Cells were homogenized in a Potter S homogenizer in lysis buffer: 50 mM Tris-HCl, 0.8% NP40, 5% glycerol, 150 mM NaCl, 1.5 mM MgCl2, 25 mM NaF, 1 mM sodium vanadate, 1 mM DTT, pH 7.5. One complete EDTA-free tablet (protease inhibitor cocktail, Roche Diagnostics, 1873580) per 25 mL buffer was added. The material was dounced 10 times using a mechanized POTTER S, transferred to 50 mL falcon tubes, incubated for 30 minutes on ice and spun down for 10 minutes at 20,000 g at 4° C. (10,000 rpm in Sorvall SLA600, precooled). The supernatant was transferred to an ultracentrifuge (UZ)-polycarbonate tube (Beckmann, 355654) and spun for 1 hour at 100,000 g at 4° C. (33.500 rpm in Ti50.2, precooled). The supernatant was transferred again to a fresh 50 mL falcon tube, the protein concentration was determined by a Bradford assay (BioRad) and samples containing 50 mg of protein per aliquot were prepared. The samples were immediately used for experiments or frozen in liquid nitrogen and stored frozen at −80° C.
Cell lysate (approximately 50 mg protein per plate) was thawed in a water bath at room temperature and then stored on ice. To the thawed cell lysate 1×DP 0.8% NP40 buffer containing protease inhibitors (1 tablet for 25 mL buffer; EDTA-free protease inhibitor cocktail; Roche Diagnostics 1873580) was added in order to reach a final protein concentration of 10 mg/mL total protein. The diluted cell lysate was stored on ice. Mixed Molt4/Ramos lysate was prepared by combining one volume of Molt4 lysate and two volumes of Ramos lysate (ratio 1:2).
To a 96 well filter plate (Multiscreen HTS, BV Filter Plates, Millipore #MSBVN1250) were added per well: 100 μL affinity matrix (3% beads slurry), 3 μL of compound solution, and 50 μL of diluted lysate. […]

Row | SMILES | IC50 [nM]
1 | Cn1cc(Nc2ncc3cnn(Cc4cccc(N5CC6(COC6)C5)c4)c3n2)cn1 [Example 89, 1-(3-(2-oxa-6-azaspiro[3.3]heptan-6-yl)benzyl)-N-(1-methyl-1H-pyrazol-4-yl)-1H-pyrazolo[3,4-d]pyrimidin-6-amine] | < 100
2 | Cn1cc(Nc2ncc3cnn(Cc4cc(F)cc(N5CC6(COC6)C5)c4)c3n2)cn1 [Example 90, 1-(3-fluoro-5-(2-oxa-6-azaspiro[3.3]heptan-6-yl)benzyl)-N-(1-methyl-1H-pyrazol-4-yl)-1H-pyrazolo[3,4-d]pyrimidin-6-amine] | < 100
3 | Cn1cc(Nc2ncc3cnn(Cc4cccc(N5CC6(COC6)C5)c4F)c3n2)cn1 [Example 91, 1-(2-fluoro-3-(2-oxa-6-azaspiro[3.3]heptan-6-yl)benzyl)-N-(1-methyl-1H-pyrazol-4-yl)-1H-pyrazolo[3,4-d]pyrimidin-6-amine] | < 100
4 | Cn1cc(Nc2ncc3cnn(Cc4cc(F)cc(N5CCNCC5)c4)c3n2)cn1 [Example 92, 1-(3-fluoro-5-(piperazin-1-yl)benzyl)-N-(1-methyl-1H-pyrazol-4-yl)-1H-pyrazolo[3,4-d]pyrimidin-6-amine] | < 100
5 | OCCn1cc(Nc2ncc3cnn(Cc4cc(F)cc(N5CCNCC5)c4)c3n2)cn1 [Example 93, 2-(4-((1-(3-fluoro-5-(piperazin-1-yl)benzyl)-1H-pyrazolo[3,4-d]pyrimidin-6-yl)amino)-1H-pyrazol-1-yl)ethanol] | < 100
6 | Fc1cc(N2CCOCC2)c(F)c(Cn2ncc3cnc(Nc4cnn(CC5CCNC5)c4)nc32)c1F (stereo not drawn) [Example 94, N-(1-(pyrrolidin-3-ylmethyl)-1H-pyrazol-4-yl)-1-(2,3,6-trifluoro-5-morpholinobenzyl)-1H-pyrazolo[3,4-d]pyrimidin-6-amine] | < 100
7 | Cn1cc(Nc2ncc3cnn(Cc4cc(F)cc(N5CCNCC5)c4F)c3n2)cn1 [Example 95, 1-(2,5-difluoro-3-(piperazin-1-yl)benzyl)-N-(1-methyl-1H-pyrazol-4-yl)-1H-pyrazolo[3,4-d]pyrimidin-6-amine] | < 100
8 | OCCn1cc(Nc2ncc3cnn(Cc4cc(F)cc(N5CCNCC5)c4F)c3n2)cn1 [Example 96, 2-(4-((1-(2,5-difluoro-3-(piperazin-1-yl)benzyl)-1H-pyrazolo[3,4-d]pyrimidin-6-yl)amino)-1H-pyrazol-1-yl)ethanol] | < 100
9 | CN(C)CC(F)Cn1cc(Nc2ncc3cnn(Cc4cc(F)cc(N5CCOCC5=O)c4)c3n2)cn1 (stereo not drawn) [Example 97, 4-(3-((6-((1-(3-(dimethylamino)-2-fluoropropyl)-1H-pyrazol-4-yl)amino)-1H-pyrazolo[3,4-d]pyrimidin-1-yl)methyl)-5-fluorophenyl)morpholin-3-one] | < 100
10 | Cn1cc(Nc2ncc3cnn(Cc4cc(C(=O)N5CCOCC5)cc(F)c4F)c3n2)cn1 [Example 98, (3,4-difluoro-5-((6-((1-methyl-1H-pyrazol-4-yl)amino)-1H-pyrazolo[3,4-d]pyrimidin-1-yl)methyl)phenyl)(morpholino)methanone] | < 100
11 | CNCCCn1cc(Nc2ncc3cnn(Cc4cc(F)cc(N5CCOCC5=O)c4)c3n2)cn1 [Example 99, 4-(3-fluoro-5-((6-((1-(3-(methylamino)propyl)-1H-pyrazol-4-yl)amino)-1H-pyrazolo[3,4-d]pyrimidin-1-yl)methyl)phenyl)morpholin-3-one] | < 100
12 | Cn1cc(Nc2ncc3cnn(Cc4cccc(N5CCN(S(C)(=O)=O)CC5)c4)c3n2)cn1 [Example 100, N-(1-methyl-1H-pyrazol-4-yl)-1-(3-(4-(methylsulfonyl)piperazin-1-yl)benzyl)-1H-pyrazolo[3,4-d]pyrimidin-6-amine] | < 100
13 | O=C1COCCN1c1cc(F)cc(Cn2ncc3cnc(Nc4cnn(CC5CCNC5)c4)nc32)c1 (stereo not drawn) [Example 101, 4-(3-fluoro-5-((6-((1-(pyrrolidin-3-ylmethyl)-1H-pyrazol-4-yl)amino)-1H-pyrazolo[3,4-d]pyrimidin-1-yl)methyl)phenyl)morpholin-3-one] | < 100
14 | O=C1COCCN1c1cc(F)cc(Cn2ncc3cnc(Nc4cnn(C5CCNCC5)c4)nc32)c1 [Example 102, 4-(3-fluoro-5-((6-((1-(piperidin-4-yl)-1H-pyrazol-4-yl)amino)-1H-pyrazolo[3,4-d]pyrimidin-1-yl)methyl)phenyl)morpholin-3-one] | < 100
15 | Cn1cc(Nc2ncc3cnn(Cc4cccc(N5CCOCC5)c4Cl)c3n2)cn1 [Example 103, 1-(2-chloro-3-morpholinobenzyl)-N-(1-methyl-1H-pyrazol-4-yl)-1H-pyrazolo[3,4-d]pyrimidin-6-amine] | < 100
16 | Cn1cc(Nc2ncc3cnn(Cc4cccc(N5CCC6(COC6)C5)c4)c3n2)cn1 [Example 104, 1-(3-(2-oxa-6-azaspiro[3.4]octan-6-yl)benzyl)-N-(1-methyl-1H-pyrazol-4-yl)-1H-pyrazolo[3,4-d]pyrimidin-6-amine] | 100 to 1000
17 | O=C1CC(Cn2cc(Nc3ncc4cnn(Cc5cc(F)cc(N6CCOCC6=O)c5)c4n3)cn2)CN1 (stereo not drawn) [Example 105, 4-(3-fluoro-5-((6-((1-((5-oxopyrrolidin-3-yl)methyl)-1H-pyrazol-4-yl)amino)-1H-pyrazolo[3,4-d]pyrimidin-1-yl)methyl)phenyl)morpholin-3-one] | < 100
18 | O=C1COCCN1c1cc(F)cc(Cn2ncc3cnc(Nc4cnn(CCS(=O)(=O)NC5CC5)c4)nc32)c1 [Example 106, N-cyclopropyl-2-(4-((1-(3-fluoro-5-(3-oxomorpholino)benzyl)-1H-pyrazolo[3,4-d]pyrimidin-6-yl)amino)-1H-pyrazol-1-yl)ethanesulfonamide] | < 100
